Data published in article PMC8865919, “Penicillin Binding Proteins and β-Lactamases of Mycobacterium tuberculosis: Reexamination of the Historical Paradigm” (mSphere, 2022).

Columns and labels:
Assay in all cases: BOCILLIN FL fluorescence inhibition, SDS-PAGE
Assay type in all cases: binding
Settings in all cases: read-out: FIC50
PbpA (Rv0016c) = PbpA (Rv0016c) (Mycobacterium tuberculosis, UniProt P9WKD1)
Excerpt: BOCILLIN FL fluorescence inhibition, SDS-PAGE on PbpA (Rv0016c)

DacB (Rv3627c) = DacB (Rv3627c) (Mycobacterium tuberculosis, UniProt O06380)
Excerpt: BOCILLIN FL fluorescence inhibition, SDS-PAGE on DacB (Rv3627c)

Rv1730c = Rv1730c (Mycobacterium tuberculosis, UniProt P71988)
Excerpt: BOCILLIN FL fluorescence inhibition, SDS-PAGE on Rv1730c

DacB1 (Rv3330) = DacB1 (Rv3330) (Mycobacterium tuberculosis, UniProt O53380)
Excerpt: BOCILLIN FL fluorescence inhibition, SDS-PAGE on DacB1 (Rv3330)

PonA1 (Rv0050) = PonA1 (Rv0050) (Mycobacterium tuberculosis, UniProt P71707)
Excerpt: BOCILLIN FL fluorescence inhibition, SDS-PAGE on PonA1 (Rv0050)

DacB2 (Rv2911) = DacB2 (Rv2911) (Mycobacterium tuberculosis, UniProt I6Y204)
Excerpt: BOCILLIN FL fluorescence inhibition, SDS-PAGE on DacB2 (Rv2911)

PonA2 (Rv3682) = PonA2 (Rv3682) (Mycobacterium tuberculosis, UniProt I6YGX2)
Excerpt: BOCILLIN FL fluorescence inhibition, SDS-PAGE on PonA2 (Rv3682)

PbpB (Rv2163c) = PbpB (Rv2163c) (Mycobacterium tuberculosis, UniProt L0T911)
Excerpt: BOCILLIN FL fluorescence inhibition, SDS-PAGE on PbpB (Rv2163c)

DacB1 (Rv3330), sequence (O53380 33-374): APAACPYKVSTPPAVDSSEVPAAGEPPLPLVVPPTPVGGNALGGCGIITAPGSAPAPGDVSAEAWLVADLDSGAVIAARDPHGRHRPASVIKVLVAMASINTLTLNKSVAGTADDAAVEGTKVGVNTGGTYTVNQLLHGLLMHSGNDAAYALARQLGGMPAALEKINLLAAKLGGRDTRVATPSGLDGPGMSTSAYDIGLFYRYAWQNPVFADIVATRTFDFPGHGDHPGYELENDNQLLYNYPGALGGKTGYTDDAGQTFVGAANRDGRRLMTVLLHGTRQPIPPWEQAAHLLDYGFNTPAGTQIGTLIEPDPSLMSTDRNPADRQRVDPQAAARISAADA
Rv1730c, sequence (P71988 entry or part of it): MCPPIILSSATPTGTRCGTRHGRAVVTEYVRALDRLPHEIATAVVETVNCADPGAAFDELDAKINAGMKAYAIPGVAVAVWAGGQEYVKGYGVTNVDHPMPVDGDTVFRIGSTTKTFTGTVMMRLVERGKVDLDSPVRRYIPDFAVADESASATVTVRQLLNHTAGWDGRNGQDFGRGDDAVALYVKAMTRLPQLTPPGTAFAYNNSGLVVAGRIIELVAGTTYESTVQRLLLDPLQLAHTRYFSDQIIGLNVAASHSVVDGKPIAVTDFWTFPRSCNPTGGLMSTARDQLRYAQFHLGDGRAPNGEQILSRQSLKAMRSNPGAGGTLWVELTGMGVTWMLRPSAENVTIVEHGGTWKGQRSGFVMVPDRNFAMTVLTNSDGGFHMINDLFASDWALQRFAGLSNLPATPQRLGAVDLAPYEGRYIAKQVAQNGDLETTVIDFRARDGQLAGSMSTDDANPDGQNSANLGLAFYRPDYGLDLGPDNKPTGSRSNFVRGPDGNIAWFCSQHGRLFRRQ
PbpB (Rv2163c), sequence (L0T911 112-679): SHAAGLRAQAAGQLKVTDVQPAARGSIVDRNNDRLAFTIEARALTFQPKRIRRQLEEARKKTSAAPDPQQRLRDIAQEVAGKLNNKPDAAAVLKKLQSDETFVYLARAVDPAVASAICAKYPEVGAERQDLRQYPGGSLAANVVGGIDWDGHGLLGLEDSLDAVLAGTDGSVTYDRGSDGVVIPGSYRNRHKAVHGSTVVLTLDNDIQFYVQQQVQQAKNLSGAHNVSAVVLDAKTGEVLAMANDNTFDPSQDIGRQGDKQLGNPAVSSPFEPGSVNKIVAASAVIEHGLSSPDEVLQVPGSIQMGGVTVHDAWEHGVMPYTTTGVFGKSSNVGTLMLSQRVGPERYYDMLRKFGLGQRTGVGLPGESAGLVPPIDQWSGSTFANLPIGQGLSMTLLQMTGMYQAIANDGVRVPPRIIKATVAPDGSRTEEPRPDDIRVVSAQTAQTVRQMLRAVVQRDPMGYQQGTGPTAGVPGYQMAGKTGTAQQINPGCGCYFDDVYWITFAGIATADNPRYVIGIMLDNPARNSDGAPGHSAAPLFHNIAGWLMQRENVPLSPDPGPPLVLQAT
PbpA (Rv0016c), sequence (P9WKD1 29-491): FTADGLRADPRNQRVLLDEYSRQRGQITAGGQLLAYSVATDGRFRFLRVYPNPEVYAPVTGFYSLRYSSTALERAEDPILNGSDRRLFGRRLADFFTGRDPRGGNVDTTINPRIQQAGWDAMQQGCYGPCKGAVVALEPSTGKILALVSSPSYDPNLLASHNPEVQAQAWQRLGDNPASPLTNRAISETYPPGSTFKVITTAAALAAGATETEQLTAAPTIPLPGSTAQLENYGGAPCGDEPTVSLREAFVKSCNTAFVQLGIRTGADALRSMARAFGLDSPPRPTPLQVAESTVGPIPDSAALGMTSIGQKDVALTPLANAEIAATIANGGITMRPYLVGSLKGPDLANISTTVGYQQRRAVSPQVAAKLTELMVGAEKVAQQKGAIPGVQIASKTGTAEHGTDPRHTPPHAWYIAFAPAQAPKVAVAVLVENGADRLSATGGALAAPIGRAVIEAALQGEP
DacB (Rv3627c), sequence (O06380 35-461): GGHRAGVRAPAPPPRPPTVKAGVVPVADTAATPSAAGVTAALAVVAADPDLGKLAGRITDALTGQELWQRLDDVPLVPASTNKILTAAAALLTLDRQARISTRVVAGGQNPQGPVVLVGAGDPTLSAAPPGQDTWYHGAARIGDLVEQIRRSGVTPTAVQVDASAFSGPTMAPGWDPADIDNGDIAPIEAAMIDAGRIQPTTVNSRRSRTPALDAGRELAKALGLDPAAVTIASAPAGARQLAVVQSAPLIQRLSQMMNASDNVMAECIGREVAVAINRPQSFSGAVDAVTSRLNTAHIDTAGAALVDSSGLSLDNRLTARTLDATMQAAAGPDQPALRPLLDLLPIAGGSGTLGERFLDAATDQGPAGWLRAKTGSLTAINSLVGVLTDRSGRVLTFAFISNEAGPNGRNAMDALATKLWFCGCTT
DacB2 (Rv2911), sequence (I6Y204 23-291): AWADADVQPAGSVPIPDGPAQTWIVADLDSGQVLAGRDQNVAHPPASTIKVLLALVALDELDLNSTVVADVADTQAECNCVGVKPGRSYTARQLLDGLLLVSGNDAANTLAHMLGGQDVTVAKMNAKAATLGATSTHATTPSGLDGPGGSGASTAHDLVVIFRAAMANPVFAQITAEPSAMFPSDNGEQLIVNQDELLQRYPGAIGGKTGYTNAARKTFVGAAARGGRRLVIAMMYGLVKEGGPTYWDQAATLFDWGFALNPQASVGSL
PonA1 (Rv0050), sequence (P71707 160-820): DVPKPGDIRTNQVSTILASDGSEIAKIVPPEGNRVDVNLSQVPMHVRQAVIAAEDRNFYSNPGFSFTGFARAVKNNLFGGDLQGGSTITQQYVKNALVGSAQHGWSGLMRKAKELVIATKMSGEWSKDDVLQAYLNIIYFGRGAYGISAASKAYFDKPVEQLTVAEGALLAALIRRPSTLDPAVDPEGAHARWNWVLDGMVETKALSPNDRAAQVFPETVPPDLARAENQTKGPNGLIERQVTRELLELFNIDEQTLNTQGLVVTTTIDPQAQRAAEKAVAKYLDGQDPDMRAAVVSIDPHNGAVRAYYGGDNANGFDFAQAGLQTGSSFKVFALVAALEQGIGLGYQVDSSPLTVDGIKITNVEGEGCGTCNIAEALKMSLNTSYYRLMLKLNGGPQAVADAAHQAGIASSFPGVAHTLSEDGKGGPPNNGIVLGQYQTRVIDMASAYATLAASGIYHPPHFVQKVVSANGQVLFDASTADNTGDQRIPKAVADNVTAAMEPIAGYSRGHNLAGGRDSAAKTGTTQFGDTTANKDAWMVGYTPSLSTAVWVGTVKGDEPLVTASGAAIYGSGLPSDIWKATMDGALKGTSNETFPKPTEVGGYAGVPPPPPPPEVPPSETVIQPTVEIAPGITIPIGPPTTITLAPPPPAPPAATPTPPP
PonA2 (Rv3682), sequence (I6YGX2 entry or part of it): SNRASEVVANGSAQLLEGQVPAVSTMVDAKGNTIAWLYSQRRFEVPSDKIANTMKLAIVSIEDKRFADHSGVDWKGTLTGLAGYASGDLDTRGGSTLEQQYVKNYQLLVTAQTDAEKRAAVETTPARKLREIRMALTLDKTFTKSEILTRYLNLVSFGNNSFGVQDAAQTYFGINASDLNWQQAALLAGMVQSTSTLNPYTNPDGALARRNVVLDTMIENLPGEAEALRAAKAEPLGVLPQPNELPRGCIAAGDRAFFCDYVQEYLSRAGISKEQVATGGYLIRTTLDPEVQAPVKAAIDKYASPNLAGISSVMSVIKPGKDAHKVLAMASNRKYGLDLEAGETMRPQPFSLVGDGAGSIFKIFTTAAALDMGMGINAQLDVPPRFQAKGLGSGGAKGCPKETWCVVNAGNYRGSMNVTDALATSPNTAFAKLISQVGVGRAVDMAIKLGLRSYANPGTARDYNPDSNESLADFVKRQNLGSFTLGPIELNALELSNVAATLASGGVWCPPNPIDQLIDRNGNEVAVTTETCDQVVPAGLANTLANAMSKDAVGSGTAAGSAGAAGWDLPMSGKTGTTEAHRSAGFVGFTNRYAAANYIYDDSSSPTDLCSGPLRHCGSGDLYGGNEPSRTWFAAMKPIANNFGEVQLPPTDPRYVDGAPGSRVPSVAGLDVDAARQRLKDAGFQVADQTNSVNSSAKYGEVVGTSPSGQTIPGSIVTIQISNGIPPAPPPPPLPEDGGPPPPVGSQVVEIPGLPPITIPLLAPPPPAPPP

COc1cccc(OC)c1C(=O)N[C@@H]1C(=O)N2[C@@H]1SC(C)(C)[C@@H]2C(=O)O [Methicillin]
IC50 (PbpA (Rv0016c)): 11.6 ± 2.6 µM

C[C@@H](O)[C@H]1C(=O)N2C(C(=O)[O-])=C(SC3Cn4cnc[n+]4C3)[C@H](C)[C@H]12 (some centres unmarked) [Biapenem]
IC50 (DacB (Rv3627c)): 3.5 ± 0.2 µM
IC50 (Rv1730c): 569 ± 72.1 µM
IC50 (DacB1 (Rv3330)): 18.1 ± 3 µM

C=CC1=C(C(=O)O)N2C(=O)[C@@H](NC(=O)/C(=N\O)c3csc(N)n3)[C@H]2SC1 [Cefdinir]
IC50 (PbpA (Rv0016c)): 13.8 ± 6.9 µM

CO[C@@]1(NC(=O)Cc2cccs2)C(=O)N2C(C(=O)O)=C(COC(N)=O)CS[C@@H]21 [Cefoxitin]
IC50 (PonA1 (Rv0050)): 25.1 ± 2.5 µM
IC50 (DacB1 (Rv3330)): 15.6 ± 1.2 µM
IC50 (DacB2 (Rv2911)): 8.1 ± 2.4 µM

C[C@@H](O)[C@H]1C(=O)N2C(C(=O)O)=C([C@H]3CCCO3)S[C@H]12 [Faropenem]
IC50 (Rv1730c): 89.8 ± 12.3 µM
IC50 (PonA1 (Rv0050)): 27.9 ± 3.5 µM

C[C@@H](O)[C@H]1C(=O)N2C(C(=O)O)=C(SCCN=CN)C[C@H]12 [Imipenem]
IC50 (PonA2 (Rv3682)): 3 ± 0.6 µM
IC50 (DacB1 (Rv3330)): 4.5 ± 1.4 µM
IC50 (DacB2 (Rv2911)): 11.1 ± 3.2 µM

C[C@@H](O)[C@H]1C(=O)N2C(C(=O)O)=C(S[C@@H]3CN[C@H](C(=O)N(C)C)C3)[C@H](C)[C@H]12 [Meropenem]
IC50 (DacB (Rv3627c)): 1.5 ± 0.2 µM
IC50 (Rv1730c): 838 ± 103 µM
IC50 (PbpB (Rv2163c)): 4.1 ± 0.2 µM

CC1(C)S[C@@H]2[C@H](NC(=O)[C@H](N)c3ccccc3)C(=O)N2[C@H]1C(=O)O [Ampicillin]
IC50 (PbpB (Rv2163c)): 1.5 ± 0.4 µM
